How the values were obtained:
[1] = system: Mycobacterium tuberculosis Erdman (autoluminescent); assay: total FIC50 (Loewe) at 50% inhibition, three-drug combination (log2); higher = more antagonistic
Method: (§1)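 DiaMOND equipotent three-drug combination dose responses (10 doses, 1.5- or 2-fold spacing, centred on IC90) against autoluminescent M. tuberculosis Erdman in 8 in vitro models. Read-out is OD600, or luminescence for the intracellular and dormancy models, normalised to untreated wells. Hill-fit Einf, AUC25 and GRinf are potency metrics; FIC50 and FIC90 are total Loewe fractional inhibitory concentrations as log2 (negative = synergy).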

[2] = system: Mycobacterium tuberculosis Erdman (autoluminescent); assay: total FIC90 (Loewe) at 90% inhibition, three-drug combination (log2); higher = more antagonistic
Method: as §1

[3] = system: Mycobacterium tuberculosis Erdman (autoluminescent); assay: Einf, fitted maximum growth inhibition of three-drug combination (fraction); higher = stronger maximal inhibition
Method: as §1

[4] = system: Mycobacterium tuberculosis Erdman (autoluminescent); assay: AUC25, normalised area under dose response up to IC25 (three-drug combination) (fraction (0-1)); higher = more potent at low dose
Method: as §1

[5] = system: Mycobacterium tuberculosis Erdman (autoluminescent); assay: GRinf, maximum normalised growth rate inhibition (three-drug combination) (unitless (-1 to 1)); higher = less effect (negative = killing)
Method: as §1

CC[C@@H](CO)NCCN[C@@H](CC)CO [ethambutol] + CC(=O)NC[C@H]1CN(c2ccc(N3CCOCC3)c(F)c2)C(=O)O1 [linezolid] + CO[C@H]1/C=C/O[C@@]2(C)Oc3c(C)c(O)c4c(O)c(c(/C=N/N5CCN(C6CCCC6)CC5)c(O)c4c3C2=O)NC(=O)/C(C)=C\C=C\[C@H](C)[C@H](O)[C@@H](C)[C@@H](O)[C@@H](C)[C@H](OC(C)=O)[C@@H]1C [rifapentine]
Conditions	AUC25, [4]	Einf, [3]	GRinf, [5]	total FIC50, [1]	total FIC90, [2]
in vitro model: acidic pH 5.7, time point: constant (~7 days, model-specific)	0.0936	0.872	-0.0867	0.452	–
in vitro model: acidic pH 5.7, time point: terminal (~4-5 doublings, model-specific)	0.0542	0.967	-0.0664	1.01	0.595
in vitro model: intracellular J774, time point: constant = terminal	–	0.962	-0.261	–	-1.64

Conditions	AUC25, [4]	Einf, [3]	GRinf, [5]	total FIC50, [1]	total FIC90, [2]
in vitro model: butyrate, time point: constant (~7 days, model-specific)	0.0551	0.886	0.0937	0.371	–
in vitro model: butyrate, time point: terminal (~4-5 doublings, model-specific)	0.0436	0.94	0.0645	0.251	-0.559
in vitro model: cholesterol 0.05 mM, time point: constant (~7 days, model-specific)	0.146	0.726	-0.109	-0.662	–
in vitro model: cholesterol 0.05 mM, time point: terminal (~4-5 doublings, model-specific)	0.154	0.936	-0.279	-1.58	–
in vitro model: cholesterol-high 0.2 mM, time point: constant (~7 days, model-specific)	0.102	0.996	-0.732	0.505	–
in vitro model: cholesterol-high 0.2 mM, time point: terminal (~4-5 doublings, model-specific)	0.103	1	-0.843	0.495	1.02
in vitro model: dormancy (butyrate + nitrate, low O2), time point: constant (~7 days, model-specific)	0.124	0.869	0.279	0.075	–
in vitro model: dormancy (butyrate + nitrate, low O2), time point: terminal (~4-5 doublings, model-specific)	0.131	0.996	-0.349	-0.164	1.09
in vitro model: standard 7H9 glycerol, time point: constant = terminal	0.0503	0.887	0.155	0.486	–
in vitro model: valerate, time point: constant (~7 days, model-specific)	0.0575	0.828	0.0988	0.319	–
in vitro model: valerate, time point: terminal (~4-5 doublings, model-specific)	0.0307	0.917	0.0733	0.429	–

CC[C@@H](CO)NCCN[C@@H](CC)CO [ethambutol] + CC(=O)NC[C@H]1CN(c2ccc(N3CCOCC3)c(F)c2)C(=O)O1 [linezolid] + CO[C@H]1/C=C/O[C@@]2(C)Oc3c(C)c(O)c4c(O)c(c(/C=N/N5CCN(C)CC5)c(O)c4c3C2=O)NC(=O)/C(C)=C\C=C\[C@H](C)[C@H](O)[C@@H](C)[C@@H](O)[C@@H](C)[C@H](OC(C)=O)[C@@H]1C [rifampicin]
Conditions	AUC25, [4]	Einf, [3]	GRinf, [5]	total FIC50, [1]	total FIC90, [2]
in vitro model: acidic pH 5.7, time point: constant (~7 days, model-specific)	0.107	0.895	-0.171	0.267	–
in vitro model: acidic pH 5.7, time point: terminal (~4-5 doublings, model-specific)	0.0468	0.972	-0.121	0.894	0.219
in vitro model: intracellular J774, time point: constant = terminal	–	0.96	-0.326	–	-2.16

Conditions	AUC25, [4]	Einf, [3]	GRinf, [5]	total FIC50, [1]	total FIC90, [2]
in vitro model: butyrate, time point: constant (~7 days, model-specific)	0.0696	0.907	0.0409	0.215	–
in vitro model: butyrate, time point: terminal (~4-5 doublings, model-specific)	0.0538	0.952	0.0366	0.088	-0.801
in vitro model: cholesterol 0.05 mM, time point: constant (~7 days, model-specific)	0.163	0.704	-0.271	-0.838	–
in vitro model: cholesterol 0.05 mM, time point: terminal (~4-5 doublings, model-specific)	0.142	0.945	-0.414	-1.2	–
in vitro model: cholesterol-high 0.2 mM, time point: constant (~7 days, model-specific)	0.0878	0.971	-0.549	0.326	–
in vitro model: cholesterol-high 0.2 mM, time point: terminal (~4-5 doublings, model-specific)	0.0943	1	-0.743	0.388	0.577
in vitro model: dormancy (butyrate + nitrate, low O2), time point: constant (~7 days, model-specific)	0.086	0.805	0.521	0.204	–
in vitro model: dormancy (butyrate + nitrate, low O2), time point: terminal (~4-5 doublings, model-specific)	0.0341	0.979	-0.0529	0.514	-0.712
in vitro model: standard 7H9 glycerol, time point: constant = terminal	0.0613	0.9	0.107	0.293	–
in vitro model: valerate, time point: constant (~7 days, model-specific)	0.0592	0.858	0.0331	0.437	–
in vitro model: valerate, time point: terminal (~4-5 doublings, model-specific)	0.0352	0.921	0.0654	0.622	-0.279

CC[C@@H](CO)NCCN[C@@H](CC)CO [ethambutol] + CC(=O)NC[C@H]1CN(c2ccc(N3CCOCC3)c(F)c2)C(=O)O1 [linezolid] + COc1c(N2C[C@@H]3CCCN[C@@H]3C2)c(F)cc2c(=O)c(C(=O)O)cn(C3CC3)c12 [moxifloxacin]
Conditions	AUC25, [4]	Einf, [3]	GRinf, [5]	total FIC50, [1]	total FIC90, [2]
in vitro model: acidic pH 5.7, time point: constant (~7 days, model-specific)	0.121	0.782	-0.587	0.0272	–
in vitro model: acidic pH 5.7, time point: terminal (~4-5 doublings, model-specific)	0.101	0.956	-0.36	1.25	0.487
in vitro model: intracellular J774, time point: constant = terminal	–	0.966	-0.388	–	-0.395

Conditions	AUC25, [4]	Einf, [3]	GRinf, [5]	total FIC50, [1]	total FIC90, [2]
in vitro model: butyrate, time point: constant (~7 days, model-specific)	0.0929	0.887	0.105	0.436	–
in vitro model: butyrate, time point: terminal (~4-5 doublings, model-specific)	0.0678	0.938	0.104	0.501	0.397
in vitro model: cholesterol 0.05 mM, time point: constant (~7 days, model-specific)	0.149	0.725	-0.165	-0.0271	–
in vitro model: cholesterol 0.05 mM, time point: terminal (~4-5 doublings, model-specific)	0.162	0.932	-0.548	7.63	–
in vitro model: cholesterol-high 0.2 mM, time point: constant (~7 days, model-specific)	0.111	0.942	-0.318	0.596	–
in vitro model: cholesterol-high 0.2 mM, time point: terminal (~4-5 doublings, model-specific)	0.109	1	-0.97	0.421	1
in vitro model: dormancy (butyrate + nitrate, low O2), time point: constant (~7 days, model-specific)	0.0953	0.849	0.414	0.25	–
in vitro model: dormancy (butyrate + nitrate, low O2), time point: terminal (~4-5 doublings, model-specific)	0.0816	0.967	-0.0859	-0.563	0.576
in vitro model: standard 7H9 glycerol, time point: constant = terminal	0.0554	0.958	-0.3	0.808	0.685
in vitro model: valerate, time point: constant (~7 days, model-specific)	0.0828	0.872	0.0258	0.39	–
in vitro model: valerate, time point: terminal (~4-5 doublings, model-specific)	0.0583	0.938	-0.0184	0.654	0.845
